Measured values reported in US20250186461A1, “METHODS AND COMPOSITIONS FOR TREATING AND/OR PREVENTING HERNIAS” (Northwestern University, priority 2023, published 2025).
“Also recorded” adds a separate entry of the source.

Assays:
[1] = target: T1, aromatase enzyme (Homo sapiens, UniProt P11511); conditions: cited from earlier work
T1 sequence (P11511 1-503): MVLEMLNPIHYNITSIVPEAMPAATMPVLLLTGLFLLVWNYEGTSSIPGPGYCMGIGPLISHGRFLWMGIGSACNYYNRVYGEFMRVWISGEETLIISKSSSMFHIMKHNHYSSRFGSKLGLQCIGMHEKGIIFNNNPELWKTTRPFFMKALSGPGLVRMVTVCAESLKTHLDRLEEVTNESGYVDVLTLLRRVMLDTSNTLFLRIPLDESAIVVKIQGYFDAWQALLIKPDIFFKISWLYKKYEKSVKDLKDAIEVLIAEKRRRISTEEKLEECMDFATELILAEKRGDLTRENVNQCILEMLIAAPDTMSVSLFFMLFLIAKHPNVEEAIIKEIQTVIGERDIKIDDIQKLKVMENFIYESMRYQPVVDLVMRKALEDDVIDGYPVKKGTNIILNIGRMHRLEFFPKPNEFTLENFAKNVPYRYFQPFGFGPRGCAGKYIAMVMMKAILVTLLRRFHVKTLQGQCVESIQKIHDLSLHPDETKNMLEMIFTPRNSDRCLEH

[2] = target: T2, glucocorticoid receptor (GR) (Homo sapiens, UniProt P04150); conditions: cited from earlier work
T2 sequence (P04150 1-777): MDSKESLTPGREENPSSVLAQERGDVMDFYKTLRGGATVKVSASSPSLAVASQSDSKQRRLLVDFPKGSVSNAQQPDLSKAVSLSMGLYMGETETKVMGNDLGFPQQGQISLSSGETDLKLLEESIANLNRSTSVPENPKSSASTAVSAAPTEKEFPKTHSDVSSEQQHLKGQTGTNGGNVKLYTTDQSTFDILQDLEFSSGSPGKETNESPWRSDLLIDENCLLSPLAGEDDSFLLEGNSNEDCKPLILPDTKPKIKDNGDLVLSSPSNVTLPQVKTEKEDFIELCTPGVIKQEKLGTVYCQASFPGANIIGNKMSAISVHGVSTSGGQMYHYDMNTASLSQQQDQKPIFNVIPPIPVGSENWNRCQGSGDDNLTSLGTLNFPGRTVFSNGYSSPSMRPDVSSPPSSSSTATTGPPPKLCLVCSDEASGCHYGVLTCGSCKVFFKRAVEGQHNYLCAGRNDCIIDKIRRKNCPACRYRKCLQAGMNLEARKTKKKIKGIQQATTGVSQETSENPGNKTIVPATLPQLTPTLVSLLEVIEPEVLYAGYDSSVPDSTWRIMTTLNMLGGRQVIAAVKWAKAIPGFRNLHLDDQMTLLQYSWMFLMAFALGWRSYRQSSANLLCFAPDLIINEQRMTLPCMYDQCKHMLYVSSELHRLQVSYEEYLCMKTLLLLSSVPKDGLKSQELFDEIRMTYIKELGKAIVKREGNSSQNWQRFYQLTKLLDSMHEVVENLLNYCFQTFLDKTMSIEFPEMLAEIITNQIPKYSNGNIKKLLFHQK

[3] = system: Arom^hum mice; test: Hernia prevention in Arom^hum mice (treatment before hernia formation); assay type: in vivo, mouse; conditions: for hernia formation / hernia size: male Arom^hum mice, 12-week treatment started at 3-3.5 weeks of age (before hernia formation)
Excerpt: Our study design is robust, utilizing Arom^hum mice with endpoints examined after treatment with placebo or anti-P4/PGR, and compared to those of WT littermates using 2 different tissue sites: UAM and LAM (normal or weakened/herniated). Inguinal hernia affects predominantly men vs. women (10:1 ratio). Inguinal hernias are unique to male mice and aged men. […] Here, we will focus on the effects of P4/PGR action on skeletal muscle integrity and hernia formation in males, and our work will be carried out in male mice or tissues primarily from men over 50 years of age. We will use mouse or human tissues or primary cells to closely recapitulate in vivo pathology.
The mouse scrotum is connected to the peritoneal cavity with a narrow funicular (or inguinal) canal, with walls composed of LAM tissue. Structurally normal LAM tissue is essential to maintain the tone of this canal and prevent herniation of the bowel.
Experiment 1a1: Does the addition of P4 to E2 treatment accelerate LAM fibrosis and hernia formation in WT mice? […] We hypothesize that this effect is primarily mediated by the E2 induction of PGR expression in LAM fibroblasts. […] If this were true, the addition of pharmacologic quantities of P4 (75 mg/pellet for 12-week release)^73 to E2 (0.3 mg/pellet for 12-week release)^23-25 in WT mice should accelerate this phenotype. […] See Statistical Methods above for sample size calculation. Hernia surface area will be measured using a digital caliper and calculated as previously described (length×width)^19. At the designated endpoints, LAM and UAM (control) from each mouse will be resected, with one-half of the tissue snap-frozen in liquid nitrogen, and the other half fixed in 4% phosphate-buffered paraformaldehyde for histological and IHC analyses (see below). All tissue and serum (for P4/E2 levels) samples will be collected between 10:00 AM and noon to avoid possible variability in daily hormone fluctuations. […] We will continue to complete the rest of the proposed study in this subaim. We will also assess whether and extent of muscle fibrosis and atrophy will be induced in P4+E2-induced large hernias and E2-induced small hernias. […] P4 antagonists show various levels of selectivity for PGR. […] The use of 3 distinct P4/PGR antagonists with different properties will establish the role of PGR in muscle fibrosis and hernia.
Hernias will be classified as small, medium, or large if the bulging area through muscle tissue is 125-175 mm^2, 175-225 mm^2, or >225 mm^2, respectively. […] We will assess whether muscle fibrosis, atrophy, and hernia are arrested or reversed. […] Hernia size will be measured. After completion of treatment, the mice will be dissected, and LAM, UAM (control), and serum will be collected. A total of 100 mg of tissue (LAM and UAM) will be obtained and frozen for measurement of tissue E2/P4.

[4] = system: LAM primary fibroblasts from Arom^hum mice; test: mRNA levels of P4/PGR-responsive and fibrotic genes in LAM primary fibroblasts; assay type: cell-based, mouse; conditions: for E2+R5020-stimulated expression of Col1a1 and Col12a1, blockade: pretreatment with 1 μM antagonist

E2+R5020-induced expression of P4/PGR-responsive (Greb1, Cyp7b1) and fibrotic genes (Adamtsl1, Col1a1, Col14a1) ([4]; 1 μM antagonist, pretreated 2 h before E2 (10 nM)+R5020 (100 nM)) | Structure (SMILES) | inhibition of aromatase enzyme activity [1] | anti-glucocorticoid activity [2] | LAM fibroblast proliferation in vivo (Ki67 IHC staining) ([3]; Arom^hum mice, placebo or RU486, n=6) | LAM tissue fibrosis, ECM deposition and myocyte atrophy (Masson's trichrome staining) ([3]; Arom^hum mice, vs placebo) | PGR-positive fibroblasts in LAM tissue (PGR IHC staining) ([3]; Arom^hum mice, vs placebo, n=10) | scrotal area ([3]; RU486-treated Arom^hum mice vs WT littermates) | hernia formation / hernia size ([3]; vs placebo) | E2+R5020-stimulated expression of Col1a1 and Col12a1, blockade [4]
– | CC#C[C@]1(O)CC[C@H]2[C@@H]3CCC4=CC(=O)CCC4=C3[C@@H](c3ccc(N(C)C)cc3)C[C@@]21C [RU486, Mifepristone] | does not inhibit aromatase enzyme activity | has anti-glucocorticoid effects | blocked | prevents LAM fibrosis, excessive ECM deposition or myocyte atrophy; also recorded: prevented LAM tissue fibrosis and atrophy in all treated Arom^hum mice | much fewer fibroblasts with PGR IHC staining; also recorded: severely reduced numbers of PGR-positive fibroblasts | slightly larger than that of WT littermates but was maintained within the upper limit of normal with no evidence of herniation | prevented hernia formation in Arom^hum mice; also recorded: strikingly reduced hernia size or entirely prevented hernia development in all Arom^hum mice | blocked
significantly decreased | CC(=O)O[C@]1(C(C)=O)CC[C@H]2[C@@H]3CCC4=CC(=O)CCC4=C3[C@@H](c3ccc(N(C)C)cc3)C[C@@]21C [UPA, Ulipristal acetate] | does not inhibit aromatase enzyme activity | extremely low anti-glucocorticoid activity | – | – | – | – | prevented hernia formation in Arom^hum mice; also recorded: also prevented hernia formation | blocked
